{"source": "patent US20070212449A1", "about": "“Reduction of the titratable acidity and the prevention of tooth and other bone degeneration” (priority 2006, published 2007)", "key": {"MG-63 osteoblast cells": {"tested_on": "MG-63 osteoblast cells", "experiment": "MTT-based proliferation assay, osteoblast cells", "format": "cell-based, human", "experimental": "(§1) Human osteoblast MG-63 cells and HS-883 osteoclast cells were treated with IP6 in vitro and their abilities to proliferate and differentiate were evaluated by MTT-based cytotoxicity assay (for proliferation) and alkaline phosphatase (ALP) and matrixmetalloproteinase-2 (MMP-2), activity for differentiation of bone cells.\n(§2) In an additional study, osteoblast MG-63 human osteosarcoma cells and osteoclast HS-883.T human bone giant sarcoma cells were cultured in Eagle's Minimum Essential Medium, in Eagle's Balanced Salt Solution with non-essential amino-acids and Dulbecco's Modified Eagles Medium, respectively. Both media were supplemented with 10% fetal bovine serum (FBS) and L-glutamine. Additionally, 1 mM of sodium pyruvate was added to culture media for MG-63 cells.\n(§3) Stock solution of 100 mM Na-IP6 was prepared in distilled water, pH adjusted to 7.4, and diluted as needed in culture media.\n(§4) Cell growth and proliferation were determined with the MTT-based cytotoxicity assay. Briefly, the MG-63 and HS-883.T cell lines were seeded into 96-well plates at a density 2000 cells per well. […] Cells were allowed to proliferate for 24 or 72 hours. 100 μL of MTT solution at concentration I mg/ml was added at the end of proliferation period to each well and allowed to incubate for 4 hours. The formazan product of MTT reduction was dissolved by adding 150 μL of DMSO. Immediately after, growth changes were evaluated by recording the reduction of MTT at 540 nm in a plate reader using data reduction software for measurement of optical density."}, "[1]": {"tested_on": "alkaline phosphatase (ALP)", "experiment": "ALP activity in osteoblast cells (differentiation marker)", "format": "cell-based, human", "details": "MG-63 cells", "experimental": "as §1, with “cells. IP6 activates ALP and MMP-2 expression in osteoblast cells, indicating their better ability to lay new bone.” for “cells.”\n(§5) To study the osteoblast and osteoclast differentiation in the presence of IP6, the following markers were evaluated: alkaline phosphatase (ALP), matrix metalloproteinase-2 (MMP-2) and tartrate-resistant acid phosphatase (TRAP).\nALP activity was measured using a commercially available kit. Osteoblast cells were plated in tissue culture dishes in amount of 4×10^5 cells per plate. […] Incubation was stopped on ice; cells were washed twice with PBS and lysed with 0.25% of Triton X-100. 25 μL of lysate was mixed with 2.5 mL of ALP sample buffer, incubated for 4 or 24 hours in room temperature and absorption was read in a plate reader at λ405 nm."}, "[2]": {"experiment": "Enamel dissolution (weight loss of enamel) in soft drinks with or without phytic acid", "set-up": "species or system human", "details": "for effect on enamel dissolution: addition of 1% phytic acid (FIG. 10)", "experimental": "For instance, studies were performed on sections of enamel removed from extracted human teeth as well as on extracted human teeth that were coated such that only the crown of the tooth (the enamel portion) was exposed to the beverage. […] These enamel specimens were immersed in the various soft drinks with or without additions of 0.5 and 1.0% by weight of dodecasodium salt of phytic acid (Inositol hexaphosphoric acid). The enamel dissolution was determined as the weight loss of the enamel at different time intervals in the untreated and treated beverages, as shown in FIGS. 7 and 8."}, "[3]": {"experiment": "Effect of IP6 and inositol additions on % TA of soft drinks", "format": "physicochemical", "experimental": "Titratable (total) acidity measures the total or potential acidity and indicates the total number of acid molecules, whereas a pH measurement represents the hydrogen ion concentration. The titratable acidity (as % citric acid) is calculated by titrating the beverage against sodium hydroxide (NaOH) solution to pH 8.2 and using the following relationship: [formula] in accordance with the standard procedures for determining the titratable acidity of a variety of fluids, including milk."}, "[4]": {"tested_on": "matrix metalloproteinase-2 (MMP-2)", "experiment": "MMP-2 zymography, culture media of osteoclast cells", "format": "cell-based, human", "details": "100 and 300 μM of IP6", "experimental": "as §5\n(§6) To evaluate MMPs activity in culture medium zymography was performed. Cells were plated in tissue culture dishes, allowed to grow to 60 -70% confluence and then were treated with different concentrations of IP6 in serum free media. After 48 hours conditioned media was collected and immediately analyzed for matrix metalloproteinase activity. 10% Polyacrilamide gels were used to perform electrophoresis, following which gels were incubated in renaturating buffer for 30 minutes with gentle agitation. Incubation was continued in developing buffer overnight at 37° C. At the end of incubation time gels were stained with Comassie blue staining solution for 10 minutes, rinsed with destaining solution one (9.2% acetic acid, 45.4% methanol) and incubated with destaining solution two (10% acetic acid and 10% methanol) at room temperature as needed. Proteinase activity was measured using UN-SCAN-IT gel digitizing software for Windows and expressed as percentage according to the amount of determined Pixel average for each band."}, "[5]": {"tested_on": "matrix metalloproteinase-2 (MMP-2)", "experiment": "MMP-2 (gelatinase A) zymography, culture media of osteoblast cells", "format": "cell-based, human", "details": "for activity of gelatinase A in culture media: osteoblast cells", "experimental": "as §1, with “cells. IP6 activates ALP and MMP-2 expression in osteoblast cells, indicating their better ability to lay new bone.” for “cells.”\nas §5, §6"}, "HS-883 osteoclast cells": {"tested_on": "HS-883 osteoclast cells", "experiment": "MTT-based proliferation assay, osteoclast cells", "format": "cell-based, human", "experimental": "as §1, §2, §3, §4"}}}
{"molecule": "C[C@]12CCC(=O)C=C1CC[C@@H]1[C@@H]2[C@@H](O)C[C@@]2(C)[C@H]1CC[C@]2(O)C(=O)CO", "note": "[Hydrocortisone, hydrocortisone, reference compound]", "values": [{"measurement": "reduction of the number of osteoblast cells", "setting": "MG-63 osteoblast cells; 10 μM hydrocortisone, p < 0.05", "result": 30.5, "unit": "%"}]}
{"molecule": "O=P(O)(O)O[C@H]1[C@H](OP(=O)(O)O)[C@@H](OP(=O)(O)O)[C@H](OP(=O)(O)O)[C@@H](OP(=O)(O)O)[C@H]1OP(=O)(O)O", "note": "[IP6, inositol hexaphosphate]", "values": [{"measurement": "absorbance at 540 nM (MTT), mean ± SD", "setting": "MG-63 osteoblast cells; Na-IP6 50 μM + 70 μM inositol with 10 μM hydrocortisone", "result": "1.73 ± 0.03"}, {"measurement": "absorbance at 540 nM (MTT), mean ± SD", "setting": "MG-63 osteoblast cells; Na-IP6 50 μM + 70 μM inositol, no hydrocortisone (control 1.54 ± 0.12)", "result": "1.69 ± 0.09"}, {"measurement": "effect on hydrocortisone suppression of osteoblast growth/proliferation", "setting": "MG-63 osteoblast cells; with 10 μM hydrocortisone, 50-300 μM sodium salt of IP6 and 70 μM inositol", "result": "opposes the negative effect of hydrocortisone"}, {"measurement": "ALP activity/expression in osteoblast cells", "setting": "[1]", "result": "activates"}, {"measurement": "effect on enamel dissolution", "setting": "[2]; 5% lemon juice", "result": "reduction in enamel dissolution"}, {"measurement": "effect on enamel erosivity", "setting": "[2]; Mountain Dew beverage (FIG. 7)", "result": "reducing enamel erosivity"}, {"measurement": "effect on enamel dissolution", "setting": "[2]; Mountain Dew", "result": "reduction in enamel dissolution"}, {"measurement": "effect on enamel erosivity", "setting": "[2]; Red Bull beverage (FIG. 8)", "result": "reducing enamel erosivity"}, {"measurement": "effect on titratable acidity", "setting": "[3]; Fresca, 0.5% addition (FIG. 9)", "result": "reduction in titratable acidity"}, {"measurement": "effect on titratable acidity", "setting": "[3]; Mountain Dew, 1.0% addition (FIG. 9)", "result": "reduction in titratable acidity"}, {"measurement": "effect on titratable acidity", "setting": "[3]; Sprite, 0.5% addition (FIG. 9)", "result": "reduction in titratable acidity"}, {"measurement": "pro-MMP-2 and MMP-2 activity", "setting": "[4]", "result": "decrease"}, {"measurement": "MMP-2 expression in osteoblast cells", "setting": "[5]; MG-63 cells", "result": "activates"}, {"measurement": "activity of gelatinase A in culture media", "setting": "[5]; 300 μM of IP6", "result": "Significant increase of activity"}, {"measurement": "activity of gelatinase A in culture media", "setting": "[5]; IP6 50 to 300 μM, 48 hours", "result": "increased the activity of gelatinase A"}, {"measurement": "absorbance at 540 nm (MTT), mean ± SD", "setting": "HS-883 osteoclast cells; 300 μM Na-IP6 + 70 μM inositol with 10 μM hydrocortisone", "result": "0.45 ± 0.02"}, {"measurement": "absorbance at 540 nm (MTT), mean ± SD", "setting": "HS-883 osteoclast cells; 300 μM Na-IP6 + 70 μM inositol, no hydrocortisone (control 0.52 ± 0.01)", "result": "0.34 ± 0.02"}, {"measurement": "proliferation of osteoclast cells", "setting": "HS-883 osteoclast cells; in vitro IP6 treatment", "result": "suppresses the proliferation"}]}
{"molecule": "O=P([O-])([O-])O[C@H]1[C@H](OP(=O)([O-])O)[C@H](OP(=O)([O-])[O-])[C@H](OP(=O)([O-])O)[C@@H](OP(=O)([O-])[O-])[C@@H]1OP(=O)([O-])O.[Na+].[Na+].[Na+].[Na+].[Na+].[Na+].[Na+].[Na+].[Na+]", "note": "[Na-IP6, dodecasodium inositol hexaphosphate]", "values": [{"measurement": "% TA", "setting": "[3]; Fresca, after addition of 0.5 g Ca-Mg IP6 + Inositol or 1 g Na-IP6 (beverage alone 0.46)", "result": 0.0, "unit": "%"}, {"measurement": "% TA", "setting": "[3]; Red Bull, after addition of 0.5 g Ca-Mg IP6 + Inositol or 1 g Na-IP6 (beverage alone 1.04)", "result": 0.22, "unit": "%"}]}
